Legend:
[1] = tested on: 6 different organisms: A. niger, B. stearotherm, C. albicans, E. cloacae, L. Leichmanii, and S. aureus; test: Challenge study using combinations, overall summary over all organisms, Example 2; type: cell-based; details: for synergistic effect: in combination with one of the parabens
Protocol: (§1) A challenge study is done on commercially sterile product containing combinations of 4 GRAS antimicrobial agents: methyl paraben, propyl paraben, diacetyl, and natamycin. Ten different matrices are tested against 6 different organisms: A. niger, B. stearotherm, C. albicans, E. cloacae, L. Leichmanii, and S. aureus.

[2] = tested on: Bacillus stearothermophilus; test: Challenge study using combinations of 4 GRAS antimicrobial agents, Example 2; type: cell-based
Protocol: as §1

[3] = tested on: Candida albicans; test: as above; type: cell-based; details: 0.2%
Protocol: as §1

[4] = tested on: Enterobacter cloacae; test: as above; type: cell-based; details: 0.2%
Protocol: as §1

[5] = tested on: Lactobacillus leichmanni; test: as above; type: cell-based; details: 0.2%
Protocol: as §1

[6] = tested on: Aspergillus niger; test: as above; type: cell-based; details: for effectiveness against growth of Aspergillus niger: 0.2%
Protocol: as §1

[7] = tested on: Enterobacter cloacae; test: Paraben challenge in commercially sterile product (Isosource), Example 1; type: cell-based; details: 0.1% in Isosource; for Inhibition of Enterobacter cloacae: 24 hours
Protocol: (§2) Commercially sterile product (Isosource®) with 0.1% methyl or propyl paraben is prepared. Organisms were challenged in both variations at their optimum growth temperature and room temperature (RT). The populations are determined at different time intervals and compared to a spiked control without the parabens.

[8] = tested on: Candida albicans; test: Challenge of propyl paraben, sodium benzoate, potassium sorbate singly and in combinations in Isosource HN, Example 4; type: cell-based; details: 0.13% propyl paraben, 0.1% sodium benzoate, 0.1% potassium sorbate in Isosource HN
Protocol: (§3) The antimicrobials, propyl paraben, sodium benzoate, and potassium sorbate are challenged singly, and in combinations, against 5 organisms.
(§4) Isosource HN® is packaged and retorted with the allowable FDA limits. Three samples, A, B, or C are prepared, having, respectively, 0.13% propyl paraben (A), 0.1% sodium benzoate (B), and 0.1% potassium sorbate (C). Additional samples D, E, and F are mixtures of A & B, A & C, and A & B & C. Three control samples: G having 0.26% ethanol; H having no preservatives and 1, a blank control are also prepared. A 350-ml aliquot of each retorted product is transferred to a sterile flask and inoculated with one of the designated organisms. A like trial is initiated for each of five organisms, Aspergillus niger, Candida albicans, Enterobacter cloacae, Staphylococcus aureus, and Lactobacillus delbrueckii. These organisms are inoculated, respectively, at 44 organisms/ml product; 2 organisms/ml product; 2 organisms/ml product; 4.1 organisms/ml product, and 30 organisms/ml product. An ethanol control is included for all the tests because it is used as the solvent carrier for paraben. An inoculated control with no inhibitors is also used for comparison. The samples are incubated at the appropriate temperature for optimum growth, and aliquots are pulled for testing at the designated intervals. Results are read and recorded as the population per milliliter of sample tested.

[9] = tested on: Enterobacter cloacae; test: as above; type: cell-based; details: 0.13% propyl paraben, 0.1% sodium benzoate, 0.1% potassium sorbate in Isosource HN
Protocol: as §3, §4

[10] = tested on: Staphylococus aureus; test: Challenge study using combinations of 4 GRAS antimicrobial agents, Example 2; type: cell-based
Protocol: as §1

[11] = tested on: 5 organisms; test: Challenge of three antimicrobials, overall summary over 5 organisms, Example 4; type: cell-based; details: 0.13% propyl paraben, 0.1% sodium benzoate, 0.1% potassium sorbate in Isosource HN
Protocol: as §3
as §4, with “The samples are incubated at the appropriate temperature for optimum growth, and aliquots are pulled for testing at the designated intervals.” left out

[12] = tested on: Candida albicans; test: Feeding tube lifetime (clogging) test in vitro, Example 3; details: 0.1% in formula, feeding tube inoculated with 100 CFU Candida albicans, approximately 30° C.
Protocol: Feeding solution is perfused through a feeding tube and maintained at approximately 30° C. during the test, which may last several days or weeks. At the time the test is begun the solution within the feeding tube is inoculated with 100 CFU of Candida albicans. After a few hours of incubation (no flow in the tube), perfusion is started and continued until the tube becomes clogged due to overgrowth of the microorganisms.

[13] = tested on: Aspergillus niger; test: Challenge of propyl paraben, sodium benzoate, potassium sorbate singly and in combinations in Isosource HN, Example 4; type: cell-based
Protocol: as §3, §4

[14] = tested on: Candida albicans; test: Paraben challenge in commercially sterile product (Isosource), Example 1; type: cell-based; details: 0.1% in Isosource
Protocol: as §2

## CC(=O)C(C)=O [diacetyl]
[1]; alone
  effectiveness alone compared with the parabens: not as effective alone as the parabens
[1]
  synergistic effect: does not contribute any synergistic effect

## C[C@@H]1C/C=C/C=C/C=C/C=C/[C@H](O[C@@H]2O[C@H](C)[C@@H](O)[C@H](N)[C@@H]2O)C[C@@H]2O[C@](O)(C[C@@H](O)C[C@H]3O[C@@H]3/C=C/C(=O)O1)C[C@H](O)[C@H]2C(=O)O [natamycin]
[1]; alone
  effectiveness alone compared with the parabens: not as effective alone as the parabens
[1]
  synergistic effect: does not contribute any synergistic effect

## COC(=O)c1ccc(O)cc1 [methyl paraben]
[2]
  inhibition of Bacillus stearothermophilus growth: greatest amount of inhibition
[2]; alone, summary statement
  effectiveness alone against Bacillus: very effective
[3]
  inhibition of Candida albicans: slight inhibitory effect
[4]; first 24 hours
  effect on Enterobacter cloacae growth: slows growth slightly
[4]; otherwise (other than first 24 hours)
  effect on Enterobacter cloacae growth: uninhibited
[5]
  effectiveness against Lactobacillus leichmanni: effective
[6]
  effectiveness against growth of Aspergillus niger: most effective
[6]; alone, summary statement
  effectiveness alone against Aspergillus: very effective
[1]; alone
  inhibition of the other organisms: slightly inhibitory on three others
[7]; 35° C.
  Inhibition of Enterobacter cloacae: dramatic
[7]; 35° C., 48 hours
  difference in population compared to the control: 0.5 logs
[7]; room temperature
  Inhibition of Enterobacter cloacae: slight inhibition
[7]; room temperature, 48 hours
  growth lower than the propyl paraben sample: 1.5 logs

## C/C=C/C=C/C(=O)[O-].[K+] [Potassium sorbate, potassium sorbate]
[8]
  inhibition of Candida albicans: not effective
[9]
  Inhibition of Enterobacter cloacae: most effective agent alone

## CCCOC(=O)c1ccc(O)cc1 [propyl paraben]
[3]
  inhibition of Candida albicans: good inhibition
[10]; 0.2% propyl paraben, summary statement
  inhibition against S. aureus: slight inhibition
[10]; 0.2%, first 24 hours
  inhibitory effect on Staphylococus aureus: slight inhibitory effect
[5]
  effectiveness against Lactobacillus leichmanni: effective
[6]
  effectiveness against growth of Aspergillus niger: most effective
[1]; 0.2%
  organisms showing good inhibition: good inhibition of three out of the six organisms
  overall inhibitory effectiveness among agents: most effective inhibitory agent overall
[11]
  overall effectiveness over the five challenge organisms: more effective against 4 of the organisms than either of the other 2 antimicrobials alone
[12]
  extension of the time when clogging occurred beyond that attained with no paraben: 1 to 2 weeks
[13]; 0.13% propyl paraben in Isosource HN, compared with the other antimicrobials
  Aspergillus niger growth inhibition: inhibited most
[13]; 7 days
  spore growth of Aspergillus niger: do not exhibit spore growth
[14]; 7 days
  lower CFU/ml of Candida albicans than the control: 2-3 log cycle
[14]; 14 days
  difference in Candida albicans CFU/ml from the control: < 2 logs

Source: US20020132030A1, “Composition and method for prolonging the useful life of enteral feeding tubes” (priority 1999, published 2002)
